One test has as its system Colletotrichum acutatum. Kind of test: Fungicidal effect test against fungi causing apple anthracnose. The conditions noted are these: 96 h, read-out: growth inhibition ratio.
The test system of another test is Botrytis cinerea. It counts as cell-based. The conditions noted are these: 120 h, 25 ppm by volume, Vogel medium, 20° C., five days, dark, read-out: growth inhibition ratio.
Another test deals with Glomerella cingulata. In words: Fungicidal effect test against fungi causing grape ripe rot disease. Conditions: Colletotrichum gloeosporioides, 72 h, read-out: growth inhibition ratio.

With `COC(=O)N(Cc1ccc(C)cc1C)NC(=O)c1cc(C)nnc1Sc1cccc(C(F)(F)F)c1` [b-78, Methyl 1-(2,4-dimethylbenzyl)-2-(6-methyl-3-((3-(trifluoromethyl)phenyl)thio)pyridazine-4-carbonyl)hydrazine-1-carboxylate], the inhibition of growth at 25 ppm with Colletotrichum acutatum, in the test with Botrytis cinerea and in the test on Glomerella cingulata was no less than 75% each time.
`COC(=O)N(Cc1ccc(C)cc1C)NC(=O)c1cc(C)nnc1Oc1cccc(SC)c1` [b-136]: the inhibition of growth at 25 ppm with Colletotrichum acutatum, with Botrytis cinerea and in the test with Glomerella cingulata was no less than 75% each time.
`CC(=O)N(Cc1ccc(C)cc1C)NC(=O)c1cc(Cl)nnc1Oc1cccc(C(F)(F)F)c1` [b-11]: the inhibition of growth at 25 ppm with Colletotrichum acutatum, in the test with Botrytis cinerea and with Glomerella cingulata was no less than 75% each time.
`Cc1cc(C(=O)NN2CCCc3ccccc32)c(Oc2cccc(C3CC3)c2F)nn1` [b-198]: in the test on Glomerella cingulata, the inhibition of growth at 25 ppm was no less than 75%.
In the case of `Cc1ccc(CN(NC(=O)c2cc(C)nnc2Oc2cccc(C3CC3)c2F)C(=O)c2ccccc2)c(C)c1` [b-24], the inhibition of growth at 25 ppm with Colletotrichum acutatum, with Botrytis cinerea and in the test on Glomerella cingulata was no less than 75% each time.
`COC(=O)N(Cc1ccc(C)cc1C)NC(=O)c1nc(C)nnc1Oc1cccc(Br)c1` [b-129]: the inhibition of growth at 25 ppm with Colletotrichum acutatum, with Botrytis cinerea and in the test with Glomerella cingulata was no less than 75% in each case.
Consider `COC(=O)N(Cc1ccc(C)cc1C)NC(=O)c1cc(C)nnc1Oc1ccc2cccnc2c1` [b-97], for which, in the test on Glomerella cingulata, the inhibition of growth at 25 ppm is no less than 75%.
On to `COC(=O)N(Cc1cnc2ccccc2c1)NC(=O)c1cc(C)nnc1Oc1cccc(C2CC2)c1F` [b-161], for which the inhibition of growth at 25 ppm with Colletotrichum acutatum and in the test on Glomerella cingulata was no less than 75% in each case.
As to `COC(=O)N(Cc1ccc(C)cc1C)NC(=O)c1cc(C)nnc1Oc1cccc(N(C)C)c1` [b-137], the inhibition of growth at 25 ppm in the test on Colletotrichum acutatum and in the test with Glomerella cingulata was no less than 75% in each case.
As to `COC(=O)N(Cc1ccc(O)cc1C)NC(=O)c1cc(C)nnc1Oc1cccc(C2CC2)c1F` [b-41], the inhibition of growth at 25 ppm in the test on Colletotrichum acutatum and in the test with Glomerella cingulata was no less than 75% throughout.
In the case of `COC(=O)N(Cc1ccc(C)cc1C)NC(=O)c1cc(S(C)(=O)=O)ncc1Oc1cccc(C2CC2)c1F` [b-193], the inhibition of growth at 25 ppm in the test on Colletotrichum acutatum, in the test on Botrytis cinerea and with Glomerella cingulata was no less than 75% in each case.
For `COC(=O)N(Cc1ccc(C)cc1C)NC(=O)c1cc(C)nnc1Oc1ccc(Br)cc1F` [b-98], the inhibition of growth at 25 ppm in the test with Botrytis cinerea was no less than 75%.
Turning to `COC(=O)N(Cc1ccc(C)cc1C)NC(=O)c1cc2cncn2nc1Oc1cccc(C2CC2)c1` [b-210, Methyl 2-(2-(3-cyclopropylphenoxy)imidazo[1,5-b]pyridazine-3-carbonyl)-1-(2,4-dimethylbenzyl)hydrazine-1-carboxylate], the inhibition of growth at 25 ppm in the test on Colletotrichum acutatum and in the test with Glomerella cingulata was no less than 75% in each case.
On to `COC(=O)N(Cc1ccc(C)cc1C)NC(=O)c1cc(C)nnc1Oc1ccc2ccccc2c1` [b-61], for which the inhibition of growth at 25 ppm with Colletotrichum acutatum, in the test on Botrytis cinerea and in the test with Glomerella cingulata was no less than 75% each time.
Consider `COC(=O)N(Cc1ccc(C)cc1C)NC(=O)c1cc(-c2ccc(F)cc2)ncc1Oc1cccc(C2CC2)c1F` [b-185], for which the inhibition of growth at 25 ppm with Colletotrichum acutatum, with Botrytis cinerea and with Glomerella cingulata was no less than 75% each time.
Take `Cc1ccc(CN(NC(=O)c2cc(C)nnc2Oc2cccc(C3CC3)c2F)C(=O)C(F)(F)F)c(C)c1` [b-4]: the inhibition of growth at 25 ppm with Colletotrichum acutatum, in the test with Botrytis cinerea and in the test on Glomerella cingulata was no less than 75% in each case.
Regarding `COC(=O)N(Cc1ccc(C)cc1C)NC(=O)c1c(C#N)cncc1Oc1cccc(C2CC2)c1F` [b-216], the inhibition of growth at 25 ppm in the test on Colletotrichum acutatum and in the test on Glomerella cingulata was no less than 75% each time.
As to `Cc1cc(C(=O)NN(C=O)Cc2ccc(Cl)cc2Cl)c(Oc2cccc(C3CC3)c2F)nn1` [b-12], the inhibition of growth at 25 ppm in the test with Colletotrichum acutatum, with Botrytis cinerea and in the test with Glomerella cingulata was no less than 75% throughout.
With `COC(=O)N(Cc1ccc(C)cc1C)NC(=O)c1cc(C)nnc1Oc1ccc(Cl)cc1F` [b-99], the inhibition of growth at 25 ppm with Botrytis cinerea was no less than 75%.
For `COC(=O)N(Cc1ccc(C)cc1C)NC(=O)c1cc(C)nnc1Oc1cccc(C(C)=O)c1` [b-131], the inhibition of growth at 25 ppm with Colletotrichum acutatum and in the test with Glomerella cingulata was no less than 75% in each case.
As to `COC(=O)N(Cc1ccc(C)cc1C)NC(=O)c1cc(C)nnc1Oc1cccc(C2CC2)c1F` [b-17], the inhibition of growth at 25 ppm in the test with Colletotrichum acutatum, in the test with Botrytis cinerea and in the test on Glomerella cingulata was no less than 75% in each case.
With `COC(=O)N(CCCc1ccc(C)cc1)NC(=O)c1cc(C)nnc1Oc1cccc(C2CC2)c1F` [b-89], the inhibition of growth at 25 ppm with Colletotrichum acutatum, in the test with Botrytis cinerea and in the test on Glomerella cingulata was no less than 75% each time.
For the compound `COc1ccc(CN(NC(=O)c2cc(C)nnc2Oc2cccc(C3CC3)c2F)c2cccc(C)c2)cc1` [b-73], the inhibition of growth at 25 ppm with Glomerella cingulata was no less than 75%.
Consider `COC(=O)N(Cc1ccc(C)cc1C)NC(=O)c1cc(NC(=O)OC(C)(C)C)nnc1Oc1cccc(Cl)c1F` [b-218], for which the inhibition of growth at 25 ppm in the test with Botrytis cinerea was no less than 75%.
Turning to `COC(=O)N(NC(=O)c1cc(C)nnc1Oc1cccc(C2CC2)c1F)C1(c2ccc(Br)cc2)CC1` [b-179], the inhibition of growth at 25 ppm in the test on Colletotrichum acutatum, in the test on Botrytis cinerea and with Glomerella cingulata was no less than 75% throughout.
For the compound `COC(=O)N(Cc1ccc(C)cc1C)NC(=O)c1c(Oc2cccc(C3CC3)c2F)cncc1C(C)=O` [b-221], the inhibition of growth at 25 ppm in the test on Colletotrichum acutatum, in the test on Botrytis cinerea and in the test on Glomerella cingulata was no less than 75% in each case.
With `Cc1ccc(CN(NC(=O)c2nc(C)ncc2Oc2cccc(C3CC3)c2F)C(=O)N(C)C)c(C)c1` [b-49], the inhibition of growth at 25 ppm in the test with Colletotrichum acutatum and in the test on Glomerella cingulata was no less than 75% each time.
`COC(=O)N(NC(=O)c1cc(C)nnc1Oc1cccc(C2CC2)c1F)c1ccc(C)s1` [b-222]: in the test with Glomerella cingulata, the inhibition of growth at 25 ppm is no less than 75%.
For the compound `COC(=O)N(Cc1ccc(C)cc1C)NC(=O)c1c(Oc2cccc(Cl)c2F)cncc1Oc1cccc(Cl)c1F` [b-203], the inhibition of growth at 25 ppm in the test with Colletotrichum acutatum and in the test with Glomerella cingulata was no less than 75% in each case.
`Cc1ccc(CN(NC(=O)c2cc(C)nnc2Oc2cccc(C3CC3)c2F)C(=O)N(C)C)c(C)c1` [b-47]: the inhibition of growth at 25 ppm in the test with Colletotrichum acutatum and in the test on Glomerella cingulata was no less than 75% throughout.
With `Cc1ccc(CN(NC(=O)c2cc(C)nnc2Oc2cccc(C3CC3)c2F)C(=O)C(=O)N(C)C)c(C)c1` [b-56], the inhibition of growth at 25 ppm in the test with Colletotrichum acutatum and in the test with Glomerella cingulata was no less than 75% throughout.
In the case of `Cc1ccc(CN(NC(=O)c2cc(C)nnc2Oc2cccc(C3CC3)c2F)C(=O)C(C)(C)C)c(C)c1` [b-19], in the test on Colletotrichum acutatum, the inhibition of growth at 25 ppm was no less than 75%.
As for `COC(=O)N(Cc1ccc(C)cc1C)NC(=O)c1cc(C)nnc1Oc1cccc(C(C)C)c1` [b-132], the inhibition of growth at 25 ppm in the test with Colletotrichum acutatum and with Glomerella cingulata was no less than 75% throughout.

The values are drawn from patent publication US20260198493A1, “HYDRAZIDE COMPOUND AND AGRICULTURAL/HORTICULTURAL FUNGICIDE” (Nippon Soda Co., Ltd., priority 2022, published 2026).
